ChEMBL document CHEMBL4706520, “Development of disulfide-derived fructose-1,6-bisphosphatase (FBPase) covalent inhibitors for the treatment of type 2 diabetes” (Eur J Med Chem, 2020)
Values belong to the compound of their own block, whether it stands above or below them. Activity calls are given as the source filed them. The calls are words filed in the database; no cut-off is given here.

Columns and labels:
[1] = target: T1, Fructose-1,6-bisphosphatase 1 (Homo sapiens) (UniProt P09467); test: Inhibition of wild-type full-length human liver FBPase expressed in Escherichia coli BL21 (DE3) using FBP as substrate at 10 uM by malachite green dye-based assay; type: single protein
T1 sequence (whole entry): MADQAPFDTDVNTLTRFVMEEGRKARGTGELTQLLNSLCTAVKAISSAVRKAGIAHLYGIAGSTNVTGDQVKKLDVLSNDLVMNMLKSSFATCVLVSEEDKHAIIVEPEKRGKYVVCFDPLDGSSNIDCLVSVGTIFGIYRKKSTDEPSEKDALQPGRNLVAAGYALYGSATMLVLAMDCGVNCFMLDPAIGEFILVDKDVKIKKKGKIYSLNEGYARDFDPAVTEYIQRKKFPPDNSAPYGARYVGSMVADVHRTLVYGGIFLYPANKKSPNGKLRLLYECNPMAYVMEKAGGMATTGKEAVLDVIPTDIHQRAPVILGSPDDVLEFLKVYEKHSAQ

[2] = tested on: c1csc(SSc2nccs2)n1; test: Covalent inhibition of FBPase C116S mutant (unknown origin) assessed as Vmax measured upto 45 mins by UV-visible spectrometry analysis; settings: Homo sapiens
[3] = tested on: c1csc(SSc2nccs2)n1; test: Covalent inhibition of FBPase C179S mutant (unknown origin) assessed as Vmax measured upto 45 mins by UV-visible spectrometry analysis; settings: Homo sapiens; time min <=45
[4] = tested on: c1csc(SSc2nccs2)n1; test: Covalent inhibition of FBPase C92S mutant (unknown origin) assessed as Vmax measured upto 45 mins by UV-visible spectrometry analysis; settings: Homo sapiens
[5] = tested on: c1csc(SSc2nccs2)n1; test: Covalent inhibition of FBPase S124A mutant (unknown origin) assessed as Vmax measured upto 45 mins by UV-visible spectrometry analysis; settings: Homo sapiens; time min <=45
[6] = tested on: c1csc(SSc2nccs2)n1; test: Covalent inhibition of FBPase N125A mutant (unknown origin) assessed as Vmax measured upto 45 mins by UV-visible spectrometry analysis; settings: Homo sapiens; time min <=45
[7] = tested on: c1csc(SSc2nccs2)n1; test: Covalent inhibition of FBPase R254A mutant (unknown origin) assessed as Vmax measured upto 45 mins by UV-visible spectrometry analysis; settings: Homo sapiens; time min <=45
[8] = tested on: c1csc(SSc2nccs2)n1; test: Covalent inhibition of FBPase C183S (unknown origin) assessed as Vmax measured upto 45 mins; settings: Homo sapiens; time min <=45
[9] = tested on: c1csc(SSc2nccs2)n1; test: Covalent inhibition of FBPase C128S mutant (unknown origin) assessed as Vmax measured upto 45 mins by UV-visible spectrometry analysis; settings: Homo sapiens; time min <=45
[10] = tested on: c1csc(SSc2nccs2)n1; test: Covalent inhibition of FBPase D127A mutant (unknown origin) assessed as Vmax measured upto 45 mins by UV-visible spectrometry analysis; settings: Homo sapiens; time min <=45
[11] = tested on: c1csc(SSc2nccs2)n1; test: Covalent inhibition of FBPase R243A mutant (unknown origin) assessed as Vmax measured upto 45 mins by UV-visible spectrometry analysis; settings: Homo sapiens; time min <=45
[12] = tested on: c1csc(SSc2nccs2)n1; test: Covalent inhibition of FBPase C183S (unknown origin) upto 45 mins; settings: Homo sapiens; time min <=45
[13] = tested on: c1csc(SSc2nccs2)n1; test: Covalent inhibition of FBPase C281S mutant (unknown origin) assessed as Vmax measured upto 45 mins by UV-visible spectrometry analysis; settings: Homo sapiens; time min <=45
[14] = tested on: c1csc(SSc2nccs2)n1; test: Covalent inhibition of FBPase Y258A mutant (unknown origin) assessed as Vmax measured upto 45 mins by UV-visible spectrometry analysis; settings: Homo sapiens; time min <=45
[15] = tested on: c1csc(SSc2nccs2)n1; test: Covalent inhibition of FBPase C38S mutant (unknown origin) assessed as Vmax measured at 45 mins by UV-visible spectrometry analysis; settings: Homo sapiens
[16] = tested on: Mus musculus; test: Hypoglycemic activity in 2 hrs fasted db/db mouse model assessed as reduction in blood glucose AUC at 25 mg/kg, ip measured upto 120 mins after oral administration of glucose at 2 g/kg for 60 min by oral glucose tolerance test; type: functional, organism-based
[17] = species on record: Homo sapiens; test: Selectivity index, ratio of IC50 for FBPase R243A mutant IC50 for FBPase WT (unknown origin)
[18] = species on record: Homo sapiens; test: Selectivity index, ratio of IC50 for FBPase C128S mutant IC50 for FBPase WT (unknown origin)
[19] = species on record: Homo sapiens; test: Selectivity index, ratio of IC50 for FBPase Y258A mutant IC50 for FBPase WT (unknown origin)
[20] = tested on: Mus musculus; test: Suppression of blood glucose concentration in 12 hrs fasted ICR mouse model at 12.5 mg/kg, ip measured upto 120 mins after oral administration of glucose at 2 g/kg for 60 min by oral glucose tolerance test; type: functional, organism-based
[21] = tested on: Mus musculus; test: Suppression of blood glucose concentration in 12 hrs fasted db/db mouse model at 12.5 mg/kg, ip measured upto 120 mins after oral administration of glucose at 2 g/kg for 60 min by oral glucose tolerance test; type: functional, organism-based
[22] = species on record: Homo sapiens; test: Selectivity index, ratio of IC50 for FBPase C38S mutant IC50 for FBPase WT (unknown origin)
[23] = species on record: Homo sapiens; test: Selectivity index, ratio of IC50 for FBPase S124A mutant IC50 for FBPase WT (unknown origin)
[24] = species on record: Homo sapiens; test: Selectivity index, ratio of IC50 for FBPase C179S mutant IC50 for FBPase WT (unknown origin)
[25] = tested on: Mus musculus; test: Hypoglycemic activity in 2 hrs fasted db/db mouse model assessed as reduction in blood glucose AUC at 12.5 mg/kg, ip measured upto 120 mins after oral administration of glucose at 2 g/kg for 60 min by oral glucose tolerance test; type: functional, organism-based
[26] = species on record: Homo sapiens; test: Selectivity index, ratio of IC50 for FBPase R254A mutant IC50 for FBPase WT (unknown origin)
[27] = species on record: Homo sapiens; test: Selectivity index, ratio of IC50 for FBPase C116S mutant IC50 for FBPase WT (unknown origin)
[28] = species on record: Homo sapiens; test: Selectivity index, ratio of IC50 for FBPase C183S mutant IC50 for FBPase WT (unknown origin)
[29] = species on record: Homo sapiens; test: Selectivity index, ratio of IC50 for FBPase N125A mutant IC50 for FBPase WT (unknown origin)
[30] = species on record: Homo sapiens; test: Selectivity index, ratio of IC50 for FBPase WT (unknown origin) to IC50 for FBPase […] mutant IC50 for FBPase WT (unknown origin)
[31] = species on record: Homo sapiens; test: Selectivity index, ratio of IC50 for FBPase C92S mutant IC50 for FBPase WT (unknown origin)
[32] = species on record: Homo sapiens; test: Selectivity index, ratio of IC50 for FBPase D127A mutant IC50 for FBPase WT (unknown origin)
[33] = target: T1, Fructose-1,6-bisphosphatase 1 (Homo sapiens); test: Covalent binding affinity to FBPase WT (unknown origin) assessed as maximum peak absorption measured upto 45 mins by UV-visible spectroscopy (reference value: 283 nm); settings: time min <=45
[34] = tested on: Hepatocyte; test: Inhibition of gluconeogenesis in C57BLKS mouse primary hepatocytes assessed as inhibition of glucose output measured after 6 hrs; type: functional, cell-based; settings: dose 0.5-100 µmol/L
[35] = tested on: Mus musculus; test: Suppression of blood glucose concentration in 12 hrs fasted ICR mouse model at 25 mg/kg, ip measured upto 120 mins after oral administration of glucose at 2 g/kg for 60 min by oral glucose tolerance test; type: functional, organism-based

inhibition [1]: 18%
Compound: Clc1ccc(SSc2ccc(Cl)cc2)cc1

inhibition [1]: 44.7%
Compound: COc1ccc2nc(SSc3nc4ccc(OC)cc4s3)sc2c1

inhibition [1]: 47.6%
Compound: S=C(SSC(=S)n1ncc2ccccc21)n1ncc2ccccc21

inhibition [1]: 32.4%
Compound: CN(C(=S)SSC(=S)N(C)c1ccc(-c2ccccc2)cc1)c1ccc(-c2ccccc2)cc1

inhibition [1]: 37.2%
Compound: S=C(SSC(=S)N1CC2CCCCC2C1)N1CC2CCCCC2C1 (centres undefined)

inhibition [1]: 29.4%
Compound: Cc1cccn1C(=S)SSC(=S)n1cccc1C

inhibition [1]: 39.7%
Compound: S=C(SSC(=S)n1c2ccccc2c2ccccc21)n1c2ccccc2c2ccccc21

inhibition [1]: 18.4%
Compound: O=[N+]([O-])c1ccc2nc(SSc3nc4ccc([N+](=O)[O-])cc4s3)sc2c1

Ratio IC50 [17]: > 1
Ratio IC50 [18]: > 1850
Ratio IC50 [19]: 11.5
Ratio IC50 [22]: 1.1
Ratio IC50 [23]: 1.7
Ratio IC50 [24]: 0.6
Ratio IC50 [26]: 2.3
Ratio IC50 [27]: 0.7
Ratio IC50 [28]: 0.8
Ratio IC50 [29]: > 926
Ratio IC50 [30]: 0.7
Ratio IC50 [31]: 0.5
Ratio IC50 [32]: 0.7
lambda max [33]: 306 nm
Compound: c1csc(SSc2nccs2)n1
inhibition [16]: Active
inhibition [20]: Active
inhibition [21]: Active
inhibition [25]: Active
inhibition [34]: Dose-dependent effect
inhibition [35]: Active

inhibition [1]: 9.87%
Compound: S=C(SSC(=S)N1CCCc2ccccc21)N1CCCc2ccccc21

inhibition [1]: 39.9%
Compound: S=C(SSC(=S)N1CCc2ccccc21)N1CCc2ccccc21

inhibition [1]: 3.09%
Compound: CN(Cc1ccccc1)C(=S)SSC(=S)N(C)Cc1ccccc1

inhibition [1]: 50.6%
Compound: c1csc(SSc2cccs2)c1

inhibition [1]: 37.7%
Compound: C[C@@H]1CN(C(=S)SSC(=S)N2C[C@@H](C)O[C@@H](C)C2)C[C@H](C)O1

inhibition [1]: 9.65%
Compound: Cn1ccnc1SSc1nccn1C

Continued, compound first:

Compound: c1csc(SSC2CCCC2)n1
inhibition [1]: 34.3%

Compound: CN(C(=S)SSC(=S)N(C)c1ccccc1)c1ccccc1
inhibition [1]: 35.7%

Compound: CCN(CC)C(=O)SSC(=O)N(CC)CC
inhibition [1]: 2.59%

Compound: S=C(SSC(=S)N1CCC1)N1CCC1
inhibition [1]: 28.5%

Compound: CC(C)N(C(=S)SSC(=S)N(C(C)C)C(C)C)C(C)C
inhibition [1]: 47.8%

Compound: c1ccc(SSc2ccccc2)cc1
inhibition [1]: 10.4%

Compound: CCN(CC)C(=S)SC(=S)N(CC)CC
inhibition [1]: 18%

Compound: Fructose-1,6-bisphosphatase 1 (Homo sapiens) (from UniProt P09467) UNDEFINED MUTATION
Vmax [2]: 1.6 U/mg
Vmax [3]: 2.3 U/mg
Vmax [4]: 1.6 U/mg
Vmax [5]: 5 U/mg
Vmax [6]: 1.5 U/mg
Vmax [7]: 3.5 U/mg
Vmax [8]: 3.8 U/mg
Vmax [9]: 2.7 U/mg
Vmax [10]: 1.9 U/mg
Vmax [11]: 2.5 U/mg
Vmax [12]: 0.21 U/mg
Vmax [13]: 3.6 U/mg
Vmax [14]: 5 U/mg
Vmax [15]: 2.7 U/mg

Compound: CCN(CC)C(=O)CSC(=S)N(CC)CC
inhibition [1]: 3.22%

Compound: CCN(CC)C(=S)SCSC(=S)N(CC)CC
inhibition [1]: 12.4%

Compound: C1CCC(SSC2CCCCC2)CC1
inhibition [1]: 12.4%

Compound: O=C(O)C1CCN(C(=S)SSC(=S)N2CCC(C(=O)O)CC2)CC1
inhibition [1]: 47.6%

Compound: CCCN(CCC)C(=S)SSC(=S)N(CCC)CCC
inhibition [1]: 13.6%

Compound: CCN(CC)C(=S)CSC(=S)N(CC)CC
inhibition [1]: 21.4%

Compound: S=C(SSC(=S)N1CCOCC1)N1CCOCC1
inhibition [1]: 26.1%

Compound: CN1CCN(C(=S)SSC(=S)N2CCN(C)CC2)CC1
inhibition [1]: 26.2%

Compound: S=C(SSC(=S)N1CCc2ccccc2C1)N1CCc2ccccc2C1
inhibition [1]: 38.4%
